“Also recorded” adds a separate entry of the source.
System: Panc03.27 xenografts
Assay: Radiation (RT) pretreatment followed by LP-184 in subcutaneous Panc03.27 pancreatic xenografts
Format: in vivo, Mice
Settings: for interaction of radiation with LP-184 on tumor volume (synergy) / mean terminal tumor volume of LP-184+RT group relative to LP-184 alone or RT alone: 4 Gy RT + 3 mg/kg i.p. LP-184, 3 mg/kg; for interaction of radiation with LP-184 on tumor volume (synergy): average tumor volume over days post treatment initiation; for mean terminal tumor volume of LP-184+RT group relative to LP-184 alone or RT alone: p value 0.017
Method: Radiation (RT) pretreatment of pancreatic tumors and subsequent (−)-hydroxyureamethyl acylfulvene treatment in vivo, 4 Gy RT was administered once weekly followed the next day by 3 mg/kg i.p. LP-184 in Panc03.27 xenografts for a total of 3 weeks. Mice bearing pre-established subcutaneous. Panc03.27 xenografts were treated with vehicle control, 4 Gy RT alone, 3 mg/kg LP-184 alone or their combination.
A line plot of average tumor volume in cubic millimeters over days post treatment initiation in Panc03.27 subcutaneous xenograft tumors treated with vehicle control (gray circles; N=6) is shown, 4 Gy RT alone (red squares; N=5), 3 mg/kg i.p. LP-184 alone (green triangles; N=6), and RT+LP-184 (blue inverted triangles; N=10). Error bars represent SEM.

In the case of `CC1=C2C(=CC(C)C2CN(O)C(N)=O)C(=O)[C@](C)(O)C12CC2` (single isomer, unassigned; (-)) [LP-184, (−)-hydroxyureamethyl acylfulvene], the “interaction of radiation with LP-184 on tumor volume (synergy)” value is reported as “synergized”, the “interaction of radiation with LP-184 on tumor volume (synergy)” value (listed as hydroxyureamethyl acylfulvene) is reported as “synergy” and the “mean terminal tumor volume of LP-184+RT group relative to LP-184 alone or RT alone” value (day 21) is reported as “statistically significant differences; also recorded: statistically smaller”. The “mean terminal tumor volume of LP-184+RT group relative to LP-184 alone or RT alone” value (day 21, listed as hydroxyureamethyl acylfulvene) was “statistically smaller”, the “mean tumor volume, fold lower in LP-184+RT animals compared to LP-184 alone animals” value (4 Gy RT once weekly followed next day by 3 mg/kg i.p. LP-184, 3 weeks, terminal tumors day 21, p=0.017) was roughly 1.8 fold and the “comparison of excised xenograft tumors at study termination across treatment arms” value (LP-184+RT group, day 21, FIG. 3) was “smallest mean volume”. For the same compound, the “efficacy of combination therapy using post-radiation treatment” value (post-radiation treatment with LP-184, pancreatic cancer) was “effective”.
